{"source": "patent US20110059124A1", "about": "“THE QUALITY CONTROL METHOD AND APPLICATION OF A KIND OF GANODERMA LUCIDUM SPORE OIL FAT EMULSION” (Guangzhou Hanfang Natural Medicine Research & Development …, priority 2008, published 2011)", "assay_type_in_all_cases": "in vivo, ICR mice", "key": {"normal mice [1]": {"test_system": "normal mice", "experiment": "Toxicity reduction for ^60Co radiation in normal mice", "conditions": "^60Co 500 rad, 0.42 mg/kg Sc once every other day", "protocol": "Toxicity Reducing Effect of Ganoderma lucidium Spore Oil Fat Emulsion i.v . Dosage for Chemotherapy ^60Co in Normal Mice\n(§1) Experiment Method: Take 60 ICR mice, apart from the 10 animals in blank control, the other 50 mice are radiated with ^60Co, with a dosage of 500 rad; after radiation with ^60Co, randomize the animals into 5 groups pursuant to body weight, with 10 animals in each group, half of which are females and half of which are males. […] All groups of animals are dosed 24 hours after innoculation, apart from that Thymosin a1 are dosed once every other day, the other groups are administered once daily, with a total dose of 7 times, and the mice are sacrificed 24 hours after termination of dosage, weigh and collect blood from the orbit veins before sacrificing, microscopically examine the total number of peripheral blood leukocytes; at the same time remove spleen, thymus gland and one complete femur, then determine the number of nucleated cells in bone marrow, and weigh the thymus gland and spleen, and calculate the coefficients of thymus glands and spleen organs, and carry out statistical treatment (t Test)."}, "normal mice [2]": {"test_system": "normal mice", "experiment": "Toxicity reduction for chemotherapy (Cy) in normal mice", "conditions": "0.42 mg/kg Sc once every other day + Cy 100 mg/kg ip", "protocol": "Toxicity reducing Effect of Ganoderma lucidium Spore Oil Fat Emulsion i.v. Dosage for Chemotherapy (Cy) in Normal Mice\nExperiment Method: Take 60 ICR mice, and randomize into 6 groups pursuant to body weight, with 10 animals in each group, half of which are females and half of which are males. […] Apart from that Thymosin a1 is administered once every other day, other groups are administered once daily, with a total dosage of 7 times. On day 4 and day 5 of the administration, apart from blank control, the other groups begin to be treated with ip.Cy (100 mg/kg), for two successive days, and the mice are sacrificed 24 hours after termination of dosage, weigh and collect blood from the orbit veins before sacrificing, microscopically examine the total number of peripheral blood leukocytes, at the same time dissect one complete femur, then determine the number of nucleated cells in the bone marrow, and remove the thymus gland and spleen for weighing, and calculate the coefficients of thymus glands and spleen organs, and carry out statistical treatment (t Test)."}, "H22 tumor bearing mice [3]": {"test_system": "H22 tumor bearing mice", "experiment": "Toxicity reduction for chemotherapy with cyclophosphamide (Cy) in H22 tumor bearing mice", "conditions": "0.42 mg/kg Sc once every other day + Cy 100 mg/kg ip", "protocol": "Toxicity Reduction Effect of Ganoderma lucidium Spore Oil Fat Emulsion i.v. Dosage for Chemotherapy with Cyclophosphamide (Cy) in H22 Tumor Bearing Mice\nExperiment Method: Take 60 ICR mice, inoculate with H22 solid tumor, weigh 24 hours after inoculation, then randomize into 6 groups, with 10 animals in each group, half of which are females and half of which are males. […] Apart from that Thymosin a1 are dosed once every other day, the other groups are administered once daily, with a total dose of 7 times, on day 4 and day 5 of administration, apart from blank control, the other groups begin to be treated with ip.Cy (100 mg/kg), for two successive day, and the mice are sacrificed 24 hours after termination of dosage, weigh and collect blood from the orbit veins before sacrificing, microscopic examine the total number of peripheral blood leukocytes, at the same time dissect one complete femur, then determine the number of nucleated cells in the bone marrow, and remove the thymus gland and spleen for weighing, and calculate the coefficients of thymus glands and spleen organs, and carry out statistical treatment (t Test)."}, "H22 tumor bearing mice [4]": {"test_system": "H22 tumor bearing mice", "experiment": "Delayed hypersensitivity (DNFB) in H22 tumor bearing mice", "conditions": "0.42 mg/kg Sc once every other day", "excerpt": "Experiment Treatment Effect of Ganoderma lucidium Spore Oil Fat Emulsion i.v. Dosage Influencing the Immunity Function of Specific Cells in H22 Tumor Bearing Mice\nTake 50 ICR mice, inoculate with H22 solid tumor pursuant to the research method of transplantable tumor (take the tumor mass under sterile operation, then weigh, grinding with Glass tissue homogenizer, after homogeneity, put into sterile containers, then dilute with normal saline into cell suspension of 1:3, for each mouse, inoculate intracutaneously under the right armpit for 0.2 ml). On the second day, they are randomized into 5 groups, with 10 mice in each group, with half being males and half females, which are divided into: Intravenous Control Group ([…], Blank Group), High, Medium, Low Doasge Groups injected with Ganoderma lucidium spore oil fat emulsion (1, 0.5, 0.25 g/kg) iv administered, Thymosin a1 injection group (0.42 mg/kg) Sc administered; apart from that Thymosin a1 is administered once every other day, other groups are administered once daily, with 7 administration. On day 1 after dosage, hair is removed from the abdomen of each mouse, with an area of 3×3 cm^2. On day 2 after dosage, smear 1% of DNFB evenly on the abdomen of mice (DNFB is a kind of haptene, which after combination with cutaneous proteins could form holoantigen, that stimulate the T Lymphocytes to multiply into sensitized lymphocytes)."}, "H22 tumor bearing mice [5]": {"test_system": "H22 tumor bearing mice", "experiment": "Phagocytic activity of reticuloendothelial system (RES) in H22 tumor bearing mice", "conditions": "0.42 mg/kg Sc once every other day", "protocol": "Experiment Treatment Effect of Ganoderma lucidium Spore Oil Fat Emulsion i.v. Dosage Influencing the Phagocytic Activity of Reticuloendothelial System (RES) in H22 Tumor Bearing Mice.\nExperiment Method: Take 50 ICR mice, inoculate with H22 solid tumor, randomize into 5 groups pursuant to body weight, with 10 animals in each group, half of which are females and half of which are males. […] Apart from that Thymosin a1 is administered once every other day, other groups are administered once daily, with a total dosage of 11 times. […] All the data obtained are statistically treated (t Test)."}, "H22 tumor bearing mice [6]": {"test_system": "H22 tumor bearing mice", "experiment": "Toxicity reduction for ^60Co radiation in H22 tumor bearing mice", "conditions": "^60Co 500 rad, 0.42 mg/kg Sc once every other day", "protocol": "Toxicity Reducing Effect of Ganoderma lucidium Spore Oil Fat Emulsion i.v. Dosage for Chemotherapy with ^60Co in H22 Tumor Bearing Mice\nas §1, with “mice, innoculate with H22 solid tumor pursuant to the research method for transplantable tumors, 24 hours after innoculation,” for “mice,”, “receive ^60Co radiation,” for “are radiated with ^60Co,”, “Apart” for “All groups of animals are dosed 24 hours after innoculation, apart”, “leukocytes,” for “leukocytes;”"}}, "note": "Marks after values point to notes of the source that are not given here. Ends that are not written are not given here.", "data": [{"substance": "Thymosin a1: Positive control drug Thymosin a1 injection, 0.42 mg/kg Sc (SDAAVDTSSEITTKDLKEKKEVVEEAEN; ends and bridges not checked; UniProt P06454 2-29, looked up)", "values": [{"measurement": "Body Weight After Dosage", "setting": "normal mice [1]", "value": "23.30 ± 2.11", "unit": "g"}, {"measurement": "Body Weight Before Dosage", "setting": "normal mice [1]", "value": "19.90 ± 1.66", "unit": "g"}, {"measurement": "Spleen Coefficient", "setting": "normal mice [1]", "value": "0.31 ± 0.14", "unit": "g/100 g"}, {"measurement": "The number of nucleated cells in bone marrow", "setting": "normal mice [1]", "value": "67.83 ± 13.09* 10^5/piece"}, {"measurement": "Thymus Gland Coefficient", "setting": "normal mice [1]", "value": "0.14 ± 0.05", "unit": "g/100 g"}, {"measurement": "WBC", "setting": "normal mice [1]", "value": "1.21 ± 0.38* 10^9/L"}, {"measurement": "Body Weight After Dosage", "setting": "normal mice [2]", "value": "22.90 ± 2.18", "unit": "g"}, {"measurement": "Body Weight Before Dosage", "setting": "normal mice [2]", "value": "19.60 ± 1.26", "unit": "g"}, {"measurement": "Spleen Coefficient", "setting": "normal mice [2]", "value": "0.36 ± 0.10", "unit": "g/100 g"}, {"measurement": "The number of nucleated cells in bone marrow", "setting": "normal mice [2]", "value": "75.43 ± 13.32* 10^5/piece"}, {"measurement": "Thymus Gland Coefficient", "setting": "normal mice [2]", "value": "0.18 ± 0.03", "unit": "g/100 g"}, {"measurement": "WBC", "setting": "normal mice [2]", "value": "2.04 ± 0.41* 10^9/L"}, {"measurement": "Body Weight After Dosage", "setting": "H22 tumor bearing mice [3]", "value": "23.60 ± 2.27", "unit": "g"}, {"measurement": "Body Weight Before Dosage", "setting": "H22 tumor bearing mice [3]", "value": "19.70 ± 1.57", "unit": "g"}, {"measurement": "Spleen Coefficient", "setting": "H22 tumor bearing mice [3]", "value": "0.64 ± 0.21", "unit": "g/100 g"}, {"measurement": "The number of nucleated cells in bone marrow", "setting": "H22 tumor bearing mice [3]", "value": "73.31 ± 15.99* 10^5/piece"}, {"measurement": "Thymus Gland Coefficient", "setting": "H22 tumor bearing mice [3]", "value": "0.12 ± 0.04", "unit": "g/100 g"}, {"measurement": "WBC", "setting": "H22 tumor bearing mice [3]", "value": "2.03 ± 0.44* 10^9/L"}, {"measurement": "Swelling Degree", "setting": "H22 tumor bearing mice [4]; 24 hours after DNFB attack", "value": "13.50 ± 3.44", "unit": "mg"}, {"measurement": "Swelling Rate", "setting": "H22 tumor bearing mice [4]; 24 hours after DNFB attack", "value": "89.12 ± 19.76", "unit": "%"}, {"measurement": "Body Weight After Dosage", "setting": "H22 tumor bearing mice [4]; in g", "value": "25.10 ± 2.18"}, {"measurement": "Body Weight Before Dosage", "setting": "H22 tumor bearing mice [4]; in g", "value": "19.30 ± 1.34"}, {"measurement": "Clearance Index K", "setting": "H22 tumor bearing mice [5]", "value": "0.09 ± 0.02"}, {"measurement": "Liver Coefficient", "setting": "H22 tumor bearing mice [5]", "value": "6.91 ± 1.08", "unit": "g/100 g"}, {"measurement": "Phagocytic Coefficient α", "setting": "H22 tumor bearing mice [5]", "value": "5.71 ± 0.76"}, {"measurement": "Spleen Coefficient", "setting": "H22 tumor bearing mice [5]", "value": "1.16 ± 0.44", "unit": "g/100 g"}, {"measurement": "Thymus Gland Coefficient", "setting": "H22 tumor bearing mice [5]", "value": "0.33 ± 0.11", "unit": "g/100 g"}, {"measurement": "Body Weight After Dosage", "setting": "H22 tumor bearing mice [6]", "value": "24.20 ± 2.25", "unit": "g"}, {"measurement": "Body Weight Before Dosage", "setting": "H22 tumor bearing mice [6]", "value": "19.60 ± 1.51", "unit": "g"}, {"measurement": "Spleen Coefficient", "setting": "H22 tumor bearing mice [6]", "value": "0.33 ± 0.04", "unit": "g/100 g"}, {"measurement": "The number of nucleated cells in bone marrow", "setting": "H22 tumor bearing mice [6]", "value": "82.71 ± 13.58* 10^5/piece"}, {"measurement": "Thymus Gland Coefficient", "setting": "H22 tumor bearing mice [6]", "value": "0.17 ± 0.07", "unit": "g/100 g"}, {"measurement": "WBC", "setting": "H22 tumor bearing mice [6]", "value": "1.98 ± 0.31* 10^9/L"}]}]}
